Results reported in ChEMBL document CHEMBL1142029, “Design, synthesis, and biological activity of novel PPARgamma ligands based on rosiglitazone and 15d-PGJ2” (Bioorg Med Chem Lett, 2005).
Active and inactive are the calls of the source. The rule behind the calls is not given here.

target: T1, Peroxisome proliferator-activated receptor gamma (Homo sapiens) (UniProt P37231); experiment: Binding affinity for peroxisome proliferator-activated receptor gamma: weak activity
T1 sequence (whole entry): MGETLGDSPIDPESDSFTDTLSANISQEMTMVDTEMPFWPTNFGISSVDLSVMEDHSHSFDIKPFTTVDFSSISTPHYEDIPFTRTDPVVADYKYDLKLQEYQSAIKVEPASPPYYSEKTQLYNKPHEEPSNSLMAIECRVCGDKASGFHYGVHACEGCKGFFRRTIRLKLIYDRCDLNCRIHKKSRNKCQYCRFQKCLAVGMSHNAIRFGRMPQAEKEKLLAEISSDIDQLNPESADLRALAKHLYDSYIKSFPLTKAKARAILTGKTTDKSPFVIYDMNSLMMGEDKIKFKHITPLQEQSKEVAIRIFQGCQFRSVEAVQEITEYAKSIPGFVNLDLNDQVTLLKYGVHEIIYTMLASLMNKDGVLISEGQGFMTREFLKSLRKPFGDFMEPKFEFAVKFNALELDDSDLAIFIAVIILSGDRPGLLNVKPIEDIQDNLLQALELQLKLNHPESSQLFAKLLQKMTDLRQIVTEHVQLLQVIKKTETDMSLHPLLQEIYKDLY

Activity | Structure (SMILES)
Weak activity | O=C(O)CCc1ccc(OCCn2c3ccccc3c3ccncc32)cc1
Weak activity | O=C(O)CCc1ccc(OCCN(c2ccccc2)c2ccccn2)cc1
Weak activity | O=C(O)CCc1ccc(OCCN(c2ccccn2)c2ccccn2)cc1

target: T1, Peroxisome proliferator-activated receptor gamma (Homo sapiens); experiment: Binding affinity for peroxisome proliferator-activated receptor gamma: more active

Activity | Structure (SMILES)
Active | CCCCCCCN(CCOc1ccc(CCC(=O)O)cc1)c1ccccn1
Active | CCCCCCCCN(CCOc1ccc(CCC(=O)O)cc1)c1ccccn1

target: T1, Peroxisome proliferator-activated receptor gamma (Homo sapiens); experiment: Binding affinity for peroxisome proliferator-activated receptor gamma: active

Activity | Structure (SMILES)
Active | CCCN(CCOc1ccc(CCC(=O)O)cc1)c1ccccn1
Active | CCN(CCOc1ccc(CCC(=O)O)cc1)c1ccccn1
Active | CCCCCN(CCOc1ccc(CCC(=O)O)cc1)c1ccccn1
Active | CCCCN(CCOc1ccc(CCC(=O)O)cc1)c1ccccn1

The remaining lines, values behind:

Structure (SMILES) | Activity
CN(CCOc1ccc(CCC(=O)O)cc1)c1ccccn1 | Active
CCCCCCN(CCOc1ccc(CCC(=O)O)cc1)c1ccccn1 | Active
CCCCCCCCCCN(CCOc1ccc(CCC(=O)O)cc1)c1ccccn1 | Active
